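Test compounds were applied to cells in 96-well plates for 48 hours at 5 doses. GI50 = concentration required for 50% inhibition of growth.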 Calls of active or inactive are those of the source. Rule as the data show it: active = GI50 up to about 1.1 µM and inactive = higher.
Key:
Assay in all cases: NCI-60 cell line screen, 48 h
UACC-257 = system: UACC-257
A549 = system: A549
SW-620 = system: SW-620
SF-268 = system: SF-268
HOP-92 = system: HOP-92
KM12 = system: KM12
RXF 393 = system: RXF 393
EKVX = system: EKVX
A498 = system: A498
786-0 = system: 786-0
MDA-MB-435 = system: MDA-MB-435
BT-549 = system: BT-549
OVCAR-5 = system: OVCAR-5
NCI-H522 = system: NCI-H522
SK-MEL-5 = system: SK-MEL-5
SK-OV-3 = system: SK-OV-3
SK-MEL-2 = system: SK-MEL-2
OVCAR-4 = system: OVCAR-4
MDA-MB-231 = system: MDA-MB-231

Measured: GI50

Cc1cc(C)c(N[S+]([O-])c2cccc(Cl)c2)c(C)c1 (stereo not given)
inactive: UACC-257 > 100 µM | A549 > 100 µM | SW-620 > 100 µM | SF-268 > 100 µM | HOP-92 > 100 µM | KM12 > 100 µM | RXF 393 > 100 µM | EKVX > 100 µM | A498 29.2 µM | 786-0 > 100 µM | MDA-MB-435 > 100 µM | BT-549 > 100 µM | OVCAR-5 > 100 µM

Cc1cc(C)nc(NC(=S)Nc2ccccc2Cl)c1
inactive: UACC-257 > 100 µM | A549 > 100 µM | SW-620 > 100 µM | SF-268 > 100 µM | NCI-H522 > 100 µM | KM12 > 100 µM | SK-MEL-5 > 100 µM | RXF 393 > 100 µM | SK-OV-3 > 100 µM | EKVX > 100 µM | A498 > 100 µM | 786-0 > 100 µM | SK-MEL-2 > 100 µM | OVCAR-4 > 100 µM | MDA-MB-435 > 100 µM | BT-549 > 100 µM | OVCAR-5 > 100 µM

C[N+](C)(C)CC(=O)N/N=C\c1c(O)ccc2ccccc12
inactive: UACC-257 18.7 µM | A549 > 100 µM | SW-620 63.5 µM | SF-268 10.7 µM | NCI-H522 16.2 µM | HOP-92 13.2 µM | KM12 32.4 µM | MDA-MB-231 92.9 µM | SK-MEL-5 16.2 µM | RXF 393 20.9 µM | SK-OV-3 34.8 µM | EKVX 35.7 µM | A498 29.5 µM | 786-0 37.8 µM | SK-MEL-2 28.3 µM | OVCAR-4 32.2 µM | MDA-MB-435 39.3 µM | OVCAR-5 57.1 µM

COc1ccc(OC)c2c1C=C[C@H](C1(C)SCCS1)C2C(C)=O (stereo not given in full)
inactive: UACC-257 35.6 µM | A549 34.1 µM | SW-620 33.1 µM | SF-268 29.6 µM | NCI-H522 13.9 µM | HOP-92 32.8 µM | KM12 32.4 µM | MDA-MB-231 32.2 µM | SK-MEL-5 17.2 µM | RXF 393 29.4 µM | SK-OV-3 20.4 µM | EKVX 41.1 µM | A498 26 µM | 786-0 31.7 µM | OVCAR-4 42.5 µM | MDA-MB-435 23.9 µM | OVCAR-5 21.3 µM

Cl.O=C(O)c1cccnc1
inactive: UACC-257 > 100 µM | A549 > 100 µM | SW-620 > 100 µM | SF-268 > 100 µM | NCI-H522 > 100 µM | HOP-92 > 100 µM | KM12 > 100 µM | MDA-MB-231 > 100 µM | SK-MEL-5 > 100 µM | EKVX > 100 µM | 786-0 > 100 µM | OVCAR-4 > 100 µM | MDA-MB-435 > 100 µM | OVCAR-5 64.4 µM

NS(=O)(=O)c1cccc(NC(=S)NC(=O)Nc2ccc(Cl)c(Cl)c2)c1
inactive: UACC-257 27.4 µM | A549 20.5 µM | SW-620 19 µM | SF-268 22.5 µM | NCI-H522 12.8 µM | HOP-92 24 µM | KM12 15.8 µM | MDA-MB-231 17.7 µM | SK-MEL-5 17.1 µM | RXF 393 22.8 µM | SK-OV-3 21.4 µM | A498 12.7 µM | 786-0 15.9 µM | SK-MEL-2 23.2 µM | OVCAR-4 22.2 µM | BT-549 16.1 µM | OVCAR-5 25 µM

Nc1ncc(Cc2nc3ccccc3s2)s1
inactive: UACC-257 76.7 µM | A549 69.8 µM | SW-620 > 100 µM | SF-268 > 100 µM | NCI-H522 53.1 µM | HOP-92 68.4 µM | KM12 56.4 µM | MDA-MB-231 69.8 µM | SK-MEL-5 28.6 µM | RXF 393 > 100 µM | SK-OV-3 > 100 µM | EKVX 30 µM | 786-0 > 100 µM | SK-MEL-2 > 100 µM | OVCAR-4 > 100 µM | MDA-MB-435 39.2 µM | OVCAR-5 > 100 µM

CC1(O)Oc2ccc3ccccc3c2C=C1C(N)=O (stereo not given)
inactive: UACC-257 > 100 µM | SW-620 > 100 µM | SF-268 71.9 µM | HOP-92 77.1 µM | KM12 > 100 µM | MDA-MB-231 38.9 µM | SK-MEL-5 58.6 µM | RXF 393 49.2 µM | SK-OV-3 > 100 µM | EKVX 54 µM | A498 28.1 µM | 786-0 > 100 µM | SK-MEL-2 40.4 µM | OVCAR-4 72.9 µM | MDA-MB-435 > 100 µM

Cc1ccc(Nc2nc(C)c(C(=O)CC(=O)C(=O)Nc3ccc(Cl)cc3)s2)cc1
inactive: UACC-257 > 100 µM | A549 > 100 µM | SW-620 > 100 µM | SF-268 49.5 µM | NCI-H522 > 100 µM | HOP-92 > 100 µM | KM12 > 100 µM | MDA-MB-231 56.5 µM | SK-MEL-5 > 100 µM | RXF 393 > 100 µM | SK-OV-3 > 100 µM | EKVX > 100 µM | A498 > 100 µM | 786-0 > 100 µM | SK-MEL-2 > 100 µM | MDA-MB-435 > 100 µM | OVCAR-5 > 100 µM

Reference: ChEMBL document CHEMBL1201862, “PubChem BioAssay data set” (2004)
